US9066922B2, “Pharmaceutical composition for the treatment or prevention of diseases involving obesity, diabetes, metabolic syndrome, neuro-degenerative diseases and mitochondria dysfunction diseases” (MD BIOALPHA CO., LTD., priority 2005, dated 2015)

Columns and labels:
[1] = tested on: Sprague-Dawley rats; experiment: Acute toxicity test, peritoneal administration; type: in vivo; conditions: peritoneal, 50, 100 and 200 mg/kg, observed for 2 weeks
[2] = tested on: mRNAs for HK2, GLUT2 and GLUT4; experiment: Gene expression of proteins involved in glucose metabolism in DIO mice; type: in vivo, C57BL/6 mice; conditions: 50 mg/kg daily oral, liver and gonadal adipose tissues, vs control group
Procedure: β-lapachone was administered daily to diet-induced obesity (DIO) mice at a dose of 50 mg/kg via an oral route, and levels of mRNAs for hexokinase 2 (HK2) (21,22), glucose transporter (GLUT) 2 and GLUT4 (18,19,20) in the liver and gonadal adipose tissues were confirmed by real-time quantitative PCR. GLUT is well-known as a protein that mediates intracellular uptake and expenditure of blood glucose in organs such as liver, adipocytes and myoblast cells, whereas HK2, an enzyme belonging to a glucokinase class, phosphorylates […] that are thus allowed to enter glycolytic pathways. […] Increased levels of GLUT2 and GLUT4 facilitate intracellular uptake of blood glucose, thus presenting the possibility of β-lapachone as an anti-diabetic drug.

[3] = tested on: C57BL/6JL Lep ob/Lep ob mice; experiment: Weight loss effects in obese mice (ob/ob): body weight; type: in vivo; conditions: 100 mg/kg for 26 days
Text: 10-week-old C57BL/6JL Lep ob/Lep ob male mice having obesity characteristics and predisposition were purchased from Daehan Biolink Co., Ltd. (Chungchongbuk-do, Korea). Animals were raised in a breeding room maintained at a temperature of 23 C, 55% humidity, illumination of 300 to 500 lux, a 12-h light/dark (L/D) cycle, and ventilation of 10 to 18 times/hr. Animals were fed ad libitum pellets of Purina Rodent Laboratory Chow 5001 (purchased from Purina Mills Inc., St. Louis, Mo., USA) as a solid feed for experimental animals and tap water as drinking water. Mice were allowed to acclimate to new environment of the breeding room for two weeks and were then administered some pyrano-o-naphthoquinone and furano-o-naphthoquinone derivatives synthesized according to the present invention at doses of 100 mg/kg for 26 days. Observation was made on changes in body weight, blood glucose and dietary intake, with respect to a time course of administration. After administration was complete, Computed Tomography (CT) was performed to confirm changes in adipose tissue distribution of animals, changes in fat distribution of tissues in various organs, changes in sizes of adipocytes, and changes in glucose, lipid and enzyme levels in blood and liver.

[4] = tested on: mRNAs of PPAR alpha, PPAR gamma, AOX, AMPK alpha 1 and 2, CPT1; experiment: Expression of genes involved in energy metabolism in DIO mice; type: in vivo, C57BL/6 mice; conditions: 50 mg/kg daily oral
Procedure: β-lapachone was administered daily to diet-induced obesity (DIO) mice at a dose of 50 mg/kg via an oral route, and levels of transcripts of genes involved in energy metabolism in the liver and gonadal adipose tissues were measured using real-time quantitative PCR. Referring to enzymes shown in FIG. 11, PPAR alpha and gamma are enzymes responsible for transcriptional regulation of enzymes involved in energy expenditure (30,31), AMPK plays a central role in the maintenance of cell energy homeostasis by sensing the intracellular AMP/ATP ratio, and AOX catalyzes to activate oxidative phosphorylation via oxidation of acyl CoA which resides in a certain step of a lipid metabolism process (32,33). In addition, CPT1 is also an enzyme involved in energy metabolism, and is well-known as an enzyme that enables the passage of long chain acyl CoA into mitochondria, not taking a route toward synthesis of triacylglycerol (34,35). […] Increased expression levels of such genes show the possibility that β-lapachone can be as therapeutic for the treatment of energy metabolism-related diseases.

[5] = tested on: DIO C57BL/6 mice; experiment: Respiratory Quotient (RQ), indirect calorimeter; type: in vivo; conditions: measured for 7 hours, vs vehicle-administered group and control group
Procedure: FIG. 24 is a graph showing effects of β-lapachone on Respiratory Quotient (RQ) after administration of β-lapachone to DIO C57BL/6 mice.
This Example was intended to examine effects of β-lapachone on fat metabolism via measurement of Respiratory Quotient (RQ). Oxygen consumption and carbon dioxide production were measured using an Oxyscan open-circuit indirect calorimeter (AccuScan Instruments, Columbus, Ohio). This apparatus consisted of enclosed acrylic chambers (21×21×21 cm). Fresh air was drawn into each chamber at a rate of 1500 ml/min and then O2 and CO2 were allowed to pass through detectors. The concentrations of the gases were recorded in ml/kg body weight/min. RQ was calculated as the volume of CO2 produced (VCO2) divided by the volume of O2 consumed (VO2). A β-lapachone-administered group, a vehicle-administered group and a control group were placed in each apparatus, and RQ was measured for 7 hours. For acclimation of animal to new environment, mice were placed in the apparatus 2 hours prior to measurement.

[6] = tested on: leptin receptor-deficient (ob/ob) mice; experiment: Changes in leptin receptor-deficient (ob/ob) mice by administration of β-lapachone; type: in vivo
Procedure: (§1) This is because fat degradation is facilitated and therefore sufficient amounts of energy are generated, despite similar dietary intake. […] In order to examine fat accumulation in the liver tissue, animals were laparotomized 56 days after administration of β-lapachone, and H&E staining (FIG. 21C) and EM examination (FIG. 21D) were performed on the liver tissue.

[7] = tested on: leptin-deficient (ob/ob) mice; experiment: as above; type: in vivo; conditions: 56 days, vs control group
Procedure: as §1

[8] = tested on: AMPK; experiment: Activation of AMPK in liver and gonadal adipose tissues of C57BL/6 mice; type: in vivo; conditions: 5 mg/kg via tail veins, 2 hours and 4 hours
Procedure: A vehicle and 5 mg/kg of β-lapachone were administered via tail veins to C57BL/6 mice for 2 hours and 4 hours, respectively. Liver and gonadal adipose tissues were removed and activity of AMPK kinase was assayed. A degree of activation was expressed as a CPM value of radioisotopes. Using the same manner, HepG2 cells, a cell line derived from human liver, were treated with 10 μM β-lapachone for 30 min, and then an assay for AMPK kinase activity was carried out.

[9] = liver and gonadal adipose tissues

In the case of `CC1(C)CCC2=C(O1)c1ccccc1C(=O)C2=O` [Compound 1, β-Lapachone], the mortality [1] is reported as “none of the animals died”, the “GLUT2 mRNA expression” value [2] is reported as “significant increases” and the “GLUT4 mRNA expression” value [2] is reported as “significant increases”. For the same compound, the “HK2 mRNA level” value [2] was “decreased”, the “Final BW” value [3] was 46.5 g and the change in vivo at 100 mg/kg ([3]; Mus musculus, 624 h, read-out: Increase in BW) was -16.8%. For the same compound, the “PPAR alpha mRNA level” value [4, 9] was “not changed”, the “PPAR gamma mRNA level” value [4, 9] was “about two-fold increases” and the “AMPK alpha 1 mRNA level” value ([4]; vs control group) was “increased levels in mRNAs”. For the same compound, the “AMPK alpha 2 mRNA level” value ([4]; vs control group) was “increased levels in mRNAs”, the “acyl CoA oxidase (AOX) mRNA level” value ([4]; vs control group) was “increased levels in mRNAs” and the “carnitine palmitoyltransferase 1 mRNA level” value ([4]; vs control group) was “increased levels in mRNAs”. For the same compound, the “Respiratory Quotient (RQ)” value [5] was “significant difference in a RQ value”, the dietary intake/body weight ([6]; 150 or 200 mg/kg daily oral, 56 days) was “notably decreased around at 10 days of administration” and the body weight ([6]; 150 or 200 mg/kg daily oral, 56 days, vs control group) was “continuous weight loss for 56 days”. The “H&E staining on liver tissue: fat vacuoles” value ([6]; 56 days after administration, vs control group) was “almost all fat vacuoles have disappeared”, the “EM examination on liver tissues: mitochondrial numbers” value ([6]; 56 days, vs control group) was “significant increases in mitochondrial numbers” and the “EM examination on muscle tissue of limbs: mitochondrial shape” value ([6]; 56 days, vs control group) was “recovery of normal mitochondrial shape”. For the same compound, the “EM examination on muscle tissue of limbs: numbers of mitochondria” value ([6]; 56 days, vs control group) was “significant increases in numbers of mitochondrial”, the “EM examination on liver tissues: fat vacuoles and glycogen stores” value [7] was “remarkably decreased fat vacuoles and glycogen stores” and the “AMPK activity in the liver and gonadal adipose tissues” value [8] was “increased AMPK activity”.
